# Tests used:
# [1] = tested on: endothelin constriction; test: Inhibitory effects on endothelin induced contraction in porcine coronary arteries (LAD rings); type: cell-based; conditions: Sus scrofa, endothelin 3×10^-9 M, read-out: Inhibition (%) of maximum contraction by endothelin
# Experimental: Inhibitory Effects of the Compounds on […] Induced Contraction in Porcine Coronary Arteries
# Ring preparation of porcine left arterior descending coronary arteries (LAD) were suspended in 20 ml baths containing Krebs-Henseleit solutions at 37° C. gassed with 97% O2 -3% CO2. Endothelin (3×10^-9 M) was added to the baths, and after the constriction reached the steady state, the compounds at concentrations of […] and 10^-5 M (Examples 45, 48 and 127) were added to the bath. Then, the relaxation activity was examined. The relaxation activity of the compounds was expressed as % inhibition from the maximum contraction by endothelin.
# [2] = tested on: Endothelin Induced Pressor and Depressor Responses; test: Inhibitory effects on endothelin induced pressor and depressor responses in conscious beagle dogs; type: in vivo
# From the text: Inhibitory Effects on Endothelin Induced Pressor and Depressor Responses in Conscious Beagle Dogs
# Using 10 male beagles (12-14 kg, 8-10 months old), a polyethylene cannula (PEG-100) was inserted into each of the left femoral artery and vein of each beagle after pentobarbital anesthesia. The experiment was started from 3 to 7 days after the operation. The cannula was connected to a pressure transducer to measure the systemic blood pressure. The endothelin antagonistic activity of the compound obtained in Example 65 was examined, taking the depressor and pressor responses due to the intravenous administration of endothelin as its indication. […]
# [3] = tested on: Ischemic and Reperfused Rat Heart; test: Depressing effect against evolution of infarct size in ischemic and reperfused rat heart; type: in vivo, Male Wistar rats; conditions: 100 mg/kg p.o. 2 hours before occlusion and 5 hours after reperfusion; n = 5; control 36.7 ± 1.4 (12); P < 0.01
# Experimental: Depressing Effect Against Evolution of Infarct Size in Ischemic and Reperfused Rat Heart
# Male Wistar rats were medianly dissected under pentobarbital anesthesia, and left anterior descending coronary artery was occluded at its origin for 1 hour, followed by resumption of Blood flowing. The chest was closed 30 to 60 minutes after the reperfusion, and the rates were kept under conscious state. After 24 hours, the rats were anesthetized again and the hearts were excised. The left ventricle of each heart was divided into six parts, and these divided parts were stained with 1% triphenyltetrazolium chloride solution at 37° C. for 15 minutes. Then, infarcted portions were weighed.
# The compound obtained in Example 127 was orally administered in a dose of 100 mg/kg as a gum arabic suspension 2 hours before the occlusion and 5 hours after the reperfusion.
# [4] = 1 mg/kg, i.v., 5 min after administration, n = 4
# [5] = 1 mg/kg, i.v., 1 hr after administration, n = 4
# [6] = 1 mg/kg, i.v., 2 hr after administration, n = 4
# [7] = 1 mg/kg, i.v., 4 hr after administration, n = 4
# [8] = 1 mg/kg, i.v., 6 hr after administration, n = 4
# [9] = 10 mg/kg, p.o., 1 hr after administration, n = 3
# [10] = 10 mg/kg, p.o., 2 hr after administration, n = 3
# [11] = 10 mg/kg, p.o., 4 hr after administration, n = 3
# [12] = 10 mg/kg, p.o., 8 hr after administration, n = 3
smiles,measurement,setting,value
"CCCn1c(=O)c(-c2ccccc2)c2n(c1=O)CC=CS2 [Example 127, 9-Phenyl-7-propyl-4H,6H-pyrimido[6,1-b][1,3]thiazine6,8(7H)-dione]",inhibition at 10 µM,[1]; 10^-5 M,90%
same,inhibition at 1 µM,[1]; 10^-6 M,82.3%
same,% inhibition of Depressor Response,[2]; [4],86 ± 9%
same,% inhibition of Pressor Response,[2]; [4],100%
same,% inhibition of Depressor Response,[2]; [5],74 ± 11%
same,% inhibition of Pressor Response,[2]; [5],55 ± 7%
same,% inhibition of Depressor Response,[2]; [6],57 ± 10%
same,% inhibition of Pressor Response,[2]; [6],55 ± 7%
same,% inhibition of Depressor Response,[2]; [7],31 ± 13%
same,% inhibition of Pressor Response,[2]; [7],38 ± 15%
same,% inhibition of Depressor Response,[2]; [8],30 ± 8%
same,% inhibition of Pressor Response,[2]; [8],32 ± 10%
same,% inhibition of Depressor Response,[2]; [9],34 ± 9%
same,% inhibition of Pressor Response,[2]; [9],37 ± 10%
same,% inhibition of Depressor Response,[2]; [10],81 ± 10%
same,% inhibition of Pressor Response,[2]; [10],85 ± 10%
same,% inhibition of Depressor Response,[2]; [11],67 ± 12%
same,% inhibition of Pressor Response,[2]; [11],76 ± 12%
same,% inhibition of Depressor Response,[2]; [12],50 ± 0%
same,% inhibition of Pressor Response,[2]; [12],43 ± 4%
same,ratio of the weight of the infarcted region to the weight of the left ventricles,[3],26.8 ± 3.1%

# Reference: patent publication US5082838A, “Sulfur-containing fused pyrimidine derivatives, their production and use” (Takeda Chemical Industries, Ltd., priority 1989, dated 1992)
